Source: paper PMC7179167 (Molecules, 2020)
≈ marks a conversion by molar mass, not a printed value.

Columns and labels:
Bax [1] = test: Bax ELISA in MCF-7 cells; type: cell-based, human; details: MCF-7 cells treated at IC50 concentration; control 39.56 ± 4.56; mean ± SD
Text: (§1) The promising antiproliferative results reported for compounds 11a, 11b, 12a, 12b and 13c against cell lines under study have prompted us to investigate the mechanism of cell death induced by these compounds. Apoptosis induction was examined in both MCF-7 and HCT-116 cancer cells by assaying the level of its key protein markers, namely: proapoptotic (p53, Bcl 2-associated X, Bax and caspases3) and antiapoptotic (B-cell lymphoma-2, Bcl-2). MCF-7 and HCT-116 cells undergoing apoptosis was detected by use of the ELISA technique. Protein marker levels were quantified according to Bradford assay.
(§2) Briefly, cells ([…] and HCT) were seeded at a concentration of 1.2–1.8 × 10^3 cells/well in 6-well plates. After 48-h treatment, the collected cells were lysed and centrifuged at 10,000 rpm for 20 min at 4 °C. The protein concentration was measured in the supernatant by Bradford protein assay. Volume containing […] of total protein was incubated with […] of caspase substrate in […] of the reaction buffer at 37 °C for 1 h in the dark. Caspase-3 activity was determined by a microplate reader at 405 nm using a caspase-3 colorimetric assay kit (Abcam) according to the manufacturer’s instructions. In vitro protein level quantitative measurement of apoptotic marker p53, Bcl-2-associated X (Bax) and antiapoptotic marker B-cell lymphoma-2 (Bcl-2) in cell lysate were assessed by Enzyme-Linked Immunosorbent Assay Simple Step ELISA® (ab199080, ab119506 and ab171571; Abcam) according to the manufacturer’s instructions.

Bcl-2 [2] = test: Bcl-2 ELISA in HCT-116 cells; type: cell-based, human; details: for Bcl-2 (ng/50 mg Protein): HCT-116 cells treated at IC50 concentration, control 23.56 ± 3.56, mean ± SD; for Reduction of expression level of antiapoptotic protein Bcl-2 compared to the control: HCT-116 cells, IC50 concentration
Text: as §1, §2

[3] = test system: HCT-116 (human colon cancer); test: MTT cytotoxicity assay, HCT-116; type: cell-based; details: Homo sapiens; for inhibition at 100 µg/mL: HCT-116, 100 µg/ml, 48 h, read-out: Growth Inhibition (%) HCT-116; for IC50: HCT-116, 48 h, 48 h post-treatment
Method: MCF-7 (human breast cancer), HCT-116 (human colon cancer) and HepG2 (human liver cancer) cell lines were obtained from Karolinska Institute, Stockholm, Sweden. All cells were maintained in RPMI 1640 medium. The media were supplemented with 10% heat-inactivated fetal bovine serum plus 1% antibiotic-antimycoticmixture (10,000 U/mL of potassium penicillin, 10,000 μg/mL of streptomycin sulfate, 25 μg/mL of amphotericin B and 1% of L glutamine (Biowest, USA)). BJ-1 of a human skin fibroblast derived from normal foreskin was obtained from ATCC® CRL-2522™ as a frozen ampoule with about 1 × 10^6 cells per 1 ml volume. BJ-1 was maintained in MEM with 2 mM of L-glutamine and Earle’s salts medium.
Cell viability was studied using the MTT 3-(4,5-dimethylthiazol-2-yl)-2,5-diphenyl-tetrazolium bromide (Bio Basic Canada Inc. Toronto, Canada) assay [33]. The steps were executed in a sterile laminar air flow cabinet biosafety class II level (Baker, SG403INT; Sanford, ME, USA). All incubations were carried out at 37 °C in a 5% CO2 incubator under a humidified atmosphere of 95% (Sheldon, TC2323; Cornelius, OR, USA). Cells were seeded into 96-well microtiter plastic plates at a concentration of (10^4 cells/well) and allowed to adhere for 24 h. The medium was aspirated and then added to the cells with the test compounds 11a–c, 12a–c, 13a–i, 14a–i and 15a,b at a single dose of 100 μg/mL in DMSO. After incubation of the medium for 48 h, 40 μL of MTT salt (2.5 μg/mL) was added to each well and then incubated for an additional 4 h. To stop the reaction and dissolve any formed formazan crystals, 200 μL of 10% sodium dodecyl sulfate (SDS) were added to each well and incubated overnight at 37 °C. The amount of formazan product was measured at 595 nm with a reference wavelength of 690 nm as a background using a microplate reader (Bio-Rad Laboratories, model 3350, California, USA). For the untreated cells (negative control), the medium was added instead of the tested compounds. […] Dimethylsulfoxide (DMSO) was the vehicle used for dissolution of the testing compound, and its final concentration on the cells was less than 0.2%. At the same dilution, the solvent concentration was the same for all drugs and between the control and drug treatments.

p53 [4] = test: p53 ELISA in HCT-116 cells; type: cell-based, human; details: HCT-116 cells treated at IC50 concentration; control 1.68 ± 0.06; mean ± SD
Text: as §1, §2

C. albicans (ATCC 10231) = test: Disk diffusion antimicrobial test, C. albicans; type: cell-based, Candida albicans; details: Candida albicans, ATCC10231, disk diffusion; yeast; 20 mg per disc (title), concentration 20 µg (footnote)
Method: (§3) The newly synthesized compounds were chosen to be evaluated in vitro towards a variety of pathogenic microorganisms; Gram-positive bacteria: S. aureus (ATCC 6538) and B. subtilis (ATCC 6633); Gram-negative bacteria: P. areuginosa (ATCC 27853) and E. coli (DSMZ 1058); yeast: C. albicans (ATCC 10231) and S. cerevisiae (ATCC 9080) and fungi: A. niger (NRRL A-326) using the disk diffusion method at a single dose of 20 µl. The results are shown in Table 1 as the growth inhibition zone (mm).
(§4) The antimicrobial activity of target compounds were evaluated to be in vitro against a variety of pathogenic microorganisms, namely Staphylococcus aureus (ATCC 6538), Bacillus subtilis (ATCC 6633) (Gram-positive bacteria), Pseudomonas areuginosa (ATCC 27853), Escherichia coli (DSMZ 1058) (Gram-negative bacteria), Candida albicans (ATCC 10231), Saccharomyces cerevisiae (ATCC 9080) (Yeast) and Aspergillus niger (NRRL A-326) (Fungi) using the disk diffusion method at a single dose of 20 µg. The microorganisms were served and obtained from the Microbial Biotechnology Department, National Research Center, Giza, Egypt. Amphotericin, amoxicillin and ciprofloxacin were used as reference drugs (Oxoid™ Disks). The tested compounds 11a–c, 12a–c, 13a–i, 14a–i and 15a,b were dissolved in dimethylsulphoxide (DMSO) at a concentration of 1 mg/mL. Aliquots of 20 μl were soaked on filter paper discs (6 mm) and dried at room temperature under sterilized conditions. The paper discs were placed on inoculated agar plats and then incubated for 24 h at 37 °C for bacterial strains and after 48–72 h incubation at 30 °C for fungi. Both bacterial and yeast strains were grown on nutrient agar medium (g/l): beef extract, 3; peptone, 10 and agar, 20 at pH of 7.2. The fungal strain was grown on Czapek-Dox medium (g/l): sucrose, 30; NaNO3, 3; MgSO4.7H2O, 0.5l; KCl, 0.5; FeSO4, 0.01; K2HPO4, 1 and agar, 20 at pH of 6.0.

Bax [5] = test: Bax ELISA in HCT-116 cells; type: cell-based, human; details: HCT-116 cells treated at IC50 concentration; control 118.54 ± 0.83; mean ± SD
Text: as §1, §2

Bcl-2 [6] = test: Bcl-2 ELISA in MCF-7 cells; type: cell-based, human; details: for Bcl-2 (ng/50 mg Protein): MCF-7 cells treated at IC50 concentration, control 25.13 ± 3.45, mean ± SD; for Reduction of expression level of antiapoptotic protein Bcl-2 compared to the control: MCF-7 cells, IC50 concentration
Text: as §1, §2

p53 [7] = test: p53 ELISA in MCF-7 cells; type: cell-based, human; details: MCF-7 cells treated at IC50 concentration; control 4.18 ± 0.58; mean ± SD
Text: as §1, §2

S. aureus (ATCC 6538) = test: Disk diffusion antimicrobial test, S. aureus; type: cell-based, Staphylococcus aureus; details: Staphylococcus aureus, ATCC6538, Gram-positive, 20 mg per disc (title), concentration 20 µg (footnote)
Method: as §3, §4

A. niger (NRRL A-326) = test: Disk diffusion antimicrobial test, A. niger; type: cell-based; details: Aspergillus niger, fungi, 20 mg per disc (title), concentration 20 µg (footnote)
Method: as §3, §4

Row | SMILES | Bax (pg/50 mg Protein) (Bax [1]) | Bcl-2 (ng/50 mg Protein) (Bcl-2 [2]) | Reduction of expression level of antiapoptotic protein Bcl-2 compared to the control (Bcl-2 [2]) | inhibition at 100 µg/mL [3] [%] | IC50 [3] [µg/mL] | p53 (pg/50 mg Protein) (p53 [4]) | zone of inhibition at 20 µg/disc (C. albicans (ATCC 10231)) [mm] | Bax (pg/50 mg Protein) (Bax [5]) | Bcl-2 (ng/50 mg Protein) (Bcl-2 [6]) | Reduction of expression level of antiapoptotic protein Bcl-2 compared to the control (Bcl-2 [6]) | p53 (Pg/50 mg Protein) (p53 [7]) | zone of inhibition at 20 µg/disc (S. aureus (ATCC 6538)) [mm] | zone of inhibition at 20 µg/disc (A. niger (NRRL A-326)) [mm]
1 | COc1c(C2=NNC3(C2)C(=O)Nc2ccccc23)c(O)cc2occc12 (centres unmarked) [Compound 11a, 5’-(6-Hydroxy-4-methoxy-benzofuran-5-yl)-2’,4’-dihydrospiro(indoline-3,3’-pyrazol)-2-one] | 122.34 ± 3.45 | 8.2 ± 1.26 | ~ 66% | 96.2 | 5.7 (≈ 16.3 µM) | 16.2 ± 0.56 | 20 | 159.26 ± 0.96 | 12.3 ± 2.26 | ~ 50% | 14.45 ± 0.82 |  | 
2 | COc1cc2occc2c(OC)c1C1=NNC2(C1)C(=O)Nc1ccccc12 (centres unmarked) [Compound 11b, 5’-(4,6-Dimethoxy-benzofuran-5-yl)-2’,4’-dihydrospiro(indoline-3,3’-pyrazol)-2-one] | 109.35 ± 4.05 | 7.25 ± 1.45 | ~76% | 94.9 | 16.4 (≈ 45.1 µM) | 3.25 ± 0.15 | 18 | 119.14 ± 1.65 | 16.18 ± 0.78 |  | 5.85 ± 0.75 |  | 
3 | COc1c(C2=NNC3(C2)C(=O)Nc2ccccc23)c(O)c(OC)c2occc12 (centres unmarked) [Compound 12a, 5’-(6-Hydroxy-4,7-dimethoxy-benzofuran-5-yl)-2’,4’-dihydrospiro(indoline-3,3’-pyrazol)-2-one] | 113.09 ± 1.98 | 21.13 ± 1.45 |  | 96.7 | 5.8 (≈ 15.3 µM) | 23.11 ± 1.22 | 12 | 124.56 ± 0.95 | 13.09 ± 2.27 | ~52% | 13.31 ± 1.08 | 8 | 
4 | COc1c(C2=NNC3(C2)C(=O)Nc2ccccc23)c(OC)c2ccoc2c1OC (centres unmarked) [Compound 12b, 5’-(4,6,7-Trimethoxy-benzofuran-5-yl)-2’,4’-dihydrospiro(indoline-3,3’-pyrazol)-2-one] | 167.07 ± 4.83 | 18.87 ± 1.84 |  | 95.1 | 7.9 (≈ 20.1 µM) | 48.07 ± 1.94 | 10 | 191.07 ± 1.95 | 12.87 ± 1.84 | ~51% | 29.58 ± 2.53 | 10 | 8
